Laboratory results reported in patent US8802597B2, “Herbicidal pyrimidines” (E I du Pont de Nemours and Company, priority 2003, dated 2014).
Like-named read-outs stand apart in the source and are kept apart here.

What was measured:
Type in all cases: in vivo
[1] = system: Surinam grass (Brachiaria decumbens); test: Test B pre/postemergence; conditions: Urochloa decumbens; for pest or weed control at 125 g/ha: 125 g ai/ha; for pest or weed control at 62 g/ha: 62 g ai/ha
Summary of the method: (§1)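 Test chemicals in a non-phytotoxic solvent mixture with surfactant were applied preemergence to planted seeds and postemergence to plants 2 to 18 cm tall (1- to 4-leaf stage). After 13 to 15 days in a greenhouse, injury was visually rated against untreated controls on a 0 to 100 scale.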

[2] = system: barnyardgrass (Echinochloa crus-galli); test: Test B pre/postemergence; conditions: Echinochloa crus-galli, scale 0 to 100 (0 no effect, 100 complete control); for pest or weed control at 62 g/ha: 62 g ai/ha; for pest or weed control at 125 g/ha: 125 g ai/ha
Summary of the method: as §1

[3] = system: cocklebur (Xanthium strumarium); test: Test B pre/postemergence; conditions: Xanthium strumarium; for pest or weed control at 62 g/ha: 62 g ai/ha; for pest or weed control at 125 g/ha: 125 g ai/ha
Summary of the method: as §1

corn (Zea mays) = test: Test B pre/postemergence; conditions: Zea mays
Summary of the method: as §1

[4] = system: crabgrass (Digitaria sanguinalis); test: Test B pre/postemergence; conditions: Digitaria sanguinalis; for pest or weed control at 62 g/ha: 62 g ai/ha; for pest or weed control at 125 g/ha: 125 g ai/ha
Summary of the method: as §1

[5] = system: giant foxtail (Setaria faberii); test: Test B pre/postemergence; conditions: Setaria faberi; for pest or weed control at 125 g/ha: 125 g ai/ha; for pest or weed control at 62 g/ha: 62 g ai/ha
Summary of the method: as §1

[6] = system: lambsquarters (Chenopodium album); test: Test B pre/postemergence; conditions: Chenopodium album; for pest or weed control at 62 g/ha: 62 g ai/ha; for pest or weed control at 125 g/ha: 125 g ai/ha
Summary of the method: as §1

[7] = system: morningglory (Ipomoea coccinea); test: Test B pre/postemergence; conditions: Ipomoea; for pest or weed control at 62 g/ha: 62 g ai/ha; for pest or weed control at 125 g/ha: 125 g ai/ha
Summary of the method: as §1

[8] = system: pigweed (Amaranthus retroflexus); test: Test B pre/postemergence; conditions: Amaranthus retroflexus; for pest or weed control at 62 g/ha: 62 g ai/ha; for pest or weed control at 125 g/ha: 125 g ai/ha
Summary of the method: as §1

[9] = system: velvetleaf (Abutilon theophrasti); test: Test B pre/postemergence; conditions: Abutilon theophrasti; for pest or weed control at 62 g/ha: 62 g ai/ha; for pest or weed control at 125 g/ha: 125 g ai/ha
Summary of the method: as §1

[10] = system: wheat (Triticum aestivum); test: Test B pre/postemergence; conditions: Triticum aestivum, scale 0 to 100 (0 no effect, 100 complete control); for plant injury at 62 g/ha: 62 g ai/ha; for plant injury at 125 g/ha: 125 g ai/ha
Summary of the method: as §1

[11] = system: blackgrass (Alopecurus myosuroides); test: Test B postemergence; conditions: Alopecurus myosuroides, post-emergence, scale 0 to 100 (0 no effect, 100 complete control), read-out: Blackgrass plant response rating
Summary of the method: as §1

wild oat (Avena fatua) = test: Test B postemergence; conditions: Avena fatua, post-emergence, scale 0 to 100 (0 no effect, 100 complete control), read-out: Oat, Wild plant response rating
Summary of the method: as §1

[12] = system: barnyardgrass (Echinochloa crus-galli); test: Test B flooded paddy test; conditions: Echinochloa crus-galli, Flood, scale 0 to 100, read-out: Plant response rating, Barnyardgrass
Summary of the method: (§2)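 Plants were grown to the 2-leaf stage before treatment, then kept in a greenhouse for 13 to 15 days. Injury was rated visually against untreated controls on a 0 to 100 scale, where 0 is no effect and 100 is complete control.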

[13] = system: duck salad (Heteranthera limosa); test: Test B flooded paddy test; conditions: Heteranthera limosa, Flood, scale 0 to 100, read-out: Plant response rating, Ducksalad
Summary of the method: as §2

rice (Oryza sativa) = test: Test B flooded paddy test; conditions: Oryza sativa, Flood, scale 0 to 100, read-out: Plant response rating, Rice
Summary of the method: as §2

[14] = system: umbrella sedge (Cyperus difformis); test: Test B flooded paddy test; conditions: Cyperus difformis, Flood, scale 0 to 100, read-out: Plant response rating, Sedge, Umbrella
Summary of the method: as §2

[15] = post-emergence, Postemergence, scale 0 to 100 (0 no effect, 100 complete control), read-out: Surinam Grass plant response rating
[16] = post-emergence, Postemergence, read-out: Barnyardgrass plant response rating
[17] = pre-emergence, Preemergence, read-out: Plant response rating, Barnyardgrass
[18] = post-emergence, Postemergence, scale 0 to 100 (0 no effect, 100 complete control), read-out: Cocklebur plant response rating
[19] = post-emergence, Postemergence, scale 0 to 100 (0 no effect, 100 complete control), read-out: Crabgrass plant response rating
[20] = post-emergence, Postemergence, scale 0 to 100 (0 no effect, 100 complete control), read-out: Foxtail, Giant plant response rating
[21] = post-emergence, Postemergence, scale 0 to 100 (0 no effect, 100 complete control), read-out: Lambsquarters plant response rating
[22] = post-emergence, Postemergence, scale 0 to 100 (0 no effect, 100 complete control), read-out: Morningglory plant response rating
[23] = post-emergence, Postemergence, scale 0 to 100 (0 no effect, 100 complete control), read-out: Pigweed plant response rating
[24] = post-emergence, Postemergence, scale 0 to 100 (0 no effect, 100 complete control), read-out: Velvetleaf plant response rating
[25] = post-emergence, Postemergence, read-out: Wheat plant response rating
[26] = pre-emergence, Preemergence, read-out: Plant response rating, Wheat

Nc1nc(C2CC2)nc(C(=O)OCc2ccccc2)c1Cl [Compound 78, phenylmethyl 6-amino-5-chloro-2-cyclopropyl-4-pyrimidinecarboxylate]
pest or weed control at 125 g/ha [1, 15]: 80%
pest or weed control at 62 g/ha [1, 15]: 60%
pest or weed control at 125 g/ha ([1]; pre-emergence, Preemergence, scale 0 to 100 (0 no effect, 100 complete control), read-out: Plant response rating, Surinam Grass): 90%
pest or weed control at 62 g/ha ([1]; pre-emergence, Preemergence, scale 0 to 100, 0 no effect, 100 complete control, read-out: Plant response rating, Surinam Grass): 60%
pest or weed control at 62 g/ha [2, 16]: 80%
pest or weed control at 125 g/ha [2, 16]: 90%
pest or weed control at 62 g/ha [2, 17]: 60%
pest or weed control at 125 g/ha [2, 17]: 70%
pest or weed control at 62 g/ha [3, 18]: 100%
pest or weed control at 125 g/ha [3, 18]: 100%
pest or weed control at 62 g/ha ([3]; pre-emergence, Preemergence, scale 0 to 100, 0 no effect, 100 complete control, read-out: Plant response rating, Cocklebur): 80%
pest or weed control at 125 g/ha ([3]; pre-emergence, Preemergence, scale 0 to 100 (0 no effect, 100 complete control), read-out: Plant response rating, Cocklebur): 100%
plant injury at 62 g/ha (corn (Zea mays); post-emergence, Postemergence, 62 g ai/ha, scale 0 to 100 (0 no effect, 100 complete control), read-out: Corn plant response rating): 40%
plant injury at 125 g/ha (corn (Zea mays); post-emergence, Postemergence, 125 g ai/ha, scale 0 to 100 (0 no effect, 100 complete control), read-out: Corn plant response rating): 80%
Corn plant response rating (crop injury, 0 = no effect, 100 = complete kill) at 62 g/ha (corn (Zea mays); pre-emergence, Preemergence, 62 g ai/ha, scale 0 to 100, 0 no effect, 100 complete control): 30%
Corn plant response rating (crop injury, 0 = no effect, 100 = complete kill) at 125 g/ha (corn (Zea mays); pre-emergence, Preemergence, 125 g ai/ha, scale 0 to 100 (0 no effect, 100 complete control)): 70%
pest or weed control at 62 g/ha [4, 19]: 60%
pest or weed control at 125 g/ha [4, 19]: 70%
pest or weed control at 62 g/ha ([4]; pre-emergence, Preemergence, scale 0 to 100, 0 no effect, 100 complete control, read-out: Plant response rating, Crabgrass): 80%
pest or weed control at 125 g/ha ([4]; pre-emergence, Preemergence, scale 0 to 100 (0 no effect, 100 complete control), read-out: Plant response rating, Crabgrass): 90%
pest or weed control at 125 g/ha [5, 20]: 70%
pest or weed control at 62 g/ha [5, 20]: 60%
pest or weed control at 125 g/ha ([5]; pre-emergence, Preemergence, scale 0 to 100 (0 no effect, 100 complete control), read-out: Plant response rating, Foxtail, Giant): 70%
pest or weed control at 62 g/ha ([5]; pre-emergence, Preemergence, scale 0 to 100, 0 no effect, 100 complete control, read-out: Plant response rating, Foxtail, Giant): 20%
pest or weed control at 62 g/ha [6, 21]: 100%
pest or weed control at 125 g/ha [6, 21]: 100%
pest or weed control at 62 g/ha ([6]; pre-emergence, Preemergence, scale 0 to 100, 0 no effect, 100 complete control, read-out: Plant response rating, Lambsquarters): 90%
pest or weed control at 125 g/ha ([6]; pre-emergence, Preemergence, scale 0 to 100 (0 no effect, 100 complete control), read-out: Plant response rating, Lambsquarters): 100%
pest or weed control at 62 g/ha [7, 22]: 100%
pest or weed control at 125 g/ha [7, 22]: 100%
pest or weed control at 62 g/ha ([7]; pre-emergence, Preemergence, scale 0 to 100, 0 no effect, 100 complete control, read-out: Plant response rating, Morningglory): 80%
pest or weed control at 125 g/ha ([7]; pre-emergence, Preemergence, scale 0 to 100 (0 no effect, 100 complete control), read-out: Plant response rating, Morningglory): 100%
pest or weed control at 62 g/ha [8, 23]: 80%
pest or weed control at 125 g/ha [8, 23]: 100%
pest or weed control at 62 g/ha ([8]; pre-emergence, Preemergence, scale 0 to 100, 0 no effect, 100 complete control, read-out: Plant response rating, Pigweed): 100%
pest or weed control at 125 g/ha ([8]; pre-emergence, Preemergence, scale 0 to 100 (0 no effect, 100 complete control), read-out: Plant response rating, Pigweed): 100%
pest or weed control at 62 g/ha [9, 24]: 70%
pest or weed control at 125 g/ha [9, 24]: 80%
pest or weed control at 62 g/ha ([9]; pre-emergence, Preemergence, scale 0 to 100, 0 no effect, 100 complete control, read-out: Plant response rating, Velvetleaf): 70%
pest or weed control at 125 g/ha ([9]; pre-emergence, Preemergence, scale 0 to 100 (0 no effect, 100 complete control), read-out: Plant response rating, Velvetleaf): 90%
plant injury at 62 g/ha [10, 25]: 50%
plant injury at 125 g/ha [10, 25]: 70%
plant injury at 62 g/ha [10, 26]: 30%
plant injury at 125 g/ha [10, 26]: 70%
pest or weed control at 62 g/ha ([11]; 62 g ai/ha): 20%
pest or weed control at 125 g/ha ([11]; 125 g ai/ha): 40%
pest or weed control at 62 g/ha (wild oat (Avena fatua); 62 g ai/ha): 50%
pest or weed control at 125 g/ha (wild oat (Avena fatua); 125 g ai/ha): 70%
pest or weed control at 125 g/ha ([12]; 125 g ai/ha): 0%
pest or weed control at 500 g/ha ([12]; 500 g ai/ha): 40%
pest or weed control at 125 g/ha ([13]; 125 g ai/ha): 20%
pest or weed control at 500 g/ha ([13]; 500 g ai/ha): 70%
plant injury at 125 g/ha (rice (Oryza sativa); 125 g ai/ha): 20%
plant injury at 500 g/ha (rice (Oryza sativa); 500 g ai/ha): 40%
pest or weed control at 125 g/ha ([14]; 125 g ai/ha): 10%
pest or weed control at 500 g/ha ([14]; 500 g ai/ha): 50%
